Laboratory results from article PMC9500072, “Topical application of an irreversible small molecule inhibitor of lysyl oxidases ameliorates skin scarring and fibrosis” (Nature Communications, 2022).
Values joined by “and” are separate entries in the source; they are usually repeats but may differ in a detail not shown here. Equal entries are not always repeated.

Tests used:
Human recombinant LOXL2 = target: T1, Human recombinant LOXL2 (Homo sapiens, UniProt Q9Y4K0); experiment: Amplex Red oxidation assay, LOXL2 inhibition; format: biochemical; conditions: 30 min pre-incubation; read-out: LOXL2 IC50
T1 construct: purchased R&D Systems
T1 sequence (Q9Y4K0 26-774): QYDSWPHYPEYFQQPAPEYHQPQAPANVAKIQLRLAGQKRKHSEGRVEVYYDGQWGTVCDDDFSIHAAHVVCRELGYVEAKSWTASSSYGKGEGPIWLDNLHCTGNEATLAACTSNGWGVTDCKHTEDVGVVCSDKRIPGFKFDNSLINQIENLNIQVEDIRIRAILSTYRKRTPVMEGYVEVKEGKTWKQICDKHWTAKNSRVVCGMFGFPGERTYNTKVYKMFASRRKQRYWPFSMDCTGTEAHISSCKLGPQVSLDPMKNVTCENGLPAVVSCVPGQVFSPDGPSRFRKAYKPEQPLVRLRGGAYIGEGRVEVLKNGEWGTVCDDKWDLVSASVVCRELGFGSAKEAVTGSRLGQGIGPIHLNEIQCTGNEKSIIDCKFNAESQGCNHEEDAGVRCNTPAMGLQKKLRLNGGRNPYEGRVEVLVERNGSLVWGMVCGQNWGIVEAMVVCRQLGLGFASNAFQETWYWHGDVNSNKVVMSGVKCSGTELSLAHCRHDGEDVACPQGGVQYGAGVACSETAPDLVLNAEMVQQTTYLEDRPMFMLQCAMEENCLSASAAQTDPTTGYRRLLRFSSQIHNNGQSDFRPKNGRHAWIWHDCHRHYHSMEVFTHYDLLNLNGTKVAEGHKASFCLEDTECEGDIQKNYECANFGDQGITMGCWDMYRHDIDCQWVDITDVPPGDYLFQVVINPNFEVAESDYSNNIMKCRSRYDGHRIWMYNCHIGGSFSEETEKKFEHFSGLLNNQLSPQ
Procedure: (§1) For compound oxidation assays, the amount of hydrogen peroxide generated at a single concentration (30 µM) of compound relative to DMSO was measured.
(§2) The measurement of the enzymatic activity of all lysyl oxidase family members was based on the detection of hydrogen peroxide with an Amplex-Red oxidation assay, as previously described; miniaturized in 384 well formats, with the appropriate combination of substrate and assay buffer for each individual enzyme. After a 30 min pre-incubation of the enzyme at 37 °C with the test compound (or with different incubation times for the time-dependency assay), one volume of reaction mixture containing 120 μM Amplex Red (AR) (Life Technologies), 1.5 U/mL horseradish peroxidase (HRP) (Sigma-Aldrich) and the specific substrate was added to each sample. The relative fluorescence units (RFU) were then measured every 2.5 min for 30 min at 37 °C, excitation 565 nm and emission 590, on a BMG Clariostar Microplate Reader. All the substrates were used at concentrations corresponding to their Km towards the corresponding enzyme, or with a range of different concentrations for the substrate competition experiments.
(§3) Lysyl oxidases assay buffer contained 1.2 M urea, 50 mM sodium borate buffer, pH 8.2 and 100 µM β-aminoproprionitrile (BAPN, Sigma-Aldrich) was used for low control.
Recombinant human LOXL1 was expressed and purified from cDNA (GeneArt) and 10 mM putrescine was used as substrate. Recombinant human and mouse LOXL2 (R&D Systems) were challenged with 5 mM putrescine (Sigma-Aldrich) as the substrate. Rat and dog recombinant LOXL2 were amplified and purified in house from HEK-293 clones kindly provided by Dr. Fernando Rodríguez Pascual, Madrid University, and used in the same conditions as for the human form. 2 mM putrescine was used as the substrate for recombinant human LOXL3 (R&D Systems) and LOXL4 (Dr. Fernando Rodríguez Pascual, university of Madrid, Spain) assays.

chicken lysyl oxidase = system: chicken lysyl oxidase; set-up: method as in earlier work; conditions: cited from earlier work
Bovine (aorta) LOX = target: T2, Bovine (aorta) LOX (Bos taurus, UniProt P33072); experiment: Amplex Red oxidation assay, LOX inhibition; format: biochemical; conditions: 30 min pre-incubation
T2 construct: Bovine (aorta) LOX used for analog screening due to ready availability; from tissue; host or cells: bovine aorta
T2 sequence (P33072 170-418): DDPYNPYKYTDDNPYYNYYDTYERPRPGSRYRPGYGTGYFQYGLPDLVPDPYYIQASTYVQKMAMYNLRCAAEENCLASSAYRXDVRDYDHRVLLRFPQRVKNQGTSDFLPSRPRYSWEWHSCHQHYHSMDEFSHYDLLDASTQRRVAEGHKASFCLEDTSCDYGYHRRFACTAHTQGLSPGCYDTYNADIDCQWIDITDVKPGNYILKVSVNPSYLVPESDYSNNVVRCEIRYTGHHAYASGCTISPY
Procedure: as §2, §3

Human Recombinant SSAO = target: T3, Human Recombinant SSAO (Homo sapiens, UniProt Q16853); experiment: Compound oxidation assay (substrate propensity) by SSAO; format: biochemical; conditions: single concentration 30 µM
T3 sequence (Q16853 1-763): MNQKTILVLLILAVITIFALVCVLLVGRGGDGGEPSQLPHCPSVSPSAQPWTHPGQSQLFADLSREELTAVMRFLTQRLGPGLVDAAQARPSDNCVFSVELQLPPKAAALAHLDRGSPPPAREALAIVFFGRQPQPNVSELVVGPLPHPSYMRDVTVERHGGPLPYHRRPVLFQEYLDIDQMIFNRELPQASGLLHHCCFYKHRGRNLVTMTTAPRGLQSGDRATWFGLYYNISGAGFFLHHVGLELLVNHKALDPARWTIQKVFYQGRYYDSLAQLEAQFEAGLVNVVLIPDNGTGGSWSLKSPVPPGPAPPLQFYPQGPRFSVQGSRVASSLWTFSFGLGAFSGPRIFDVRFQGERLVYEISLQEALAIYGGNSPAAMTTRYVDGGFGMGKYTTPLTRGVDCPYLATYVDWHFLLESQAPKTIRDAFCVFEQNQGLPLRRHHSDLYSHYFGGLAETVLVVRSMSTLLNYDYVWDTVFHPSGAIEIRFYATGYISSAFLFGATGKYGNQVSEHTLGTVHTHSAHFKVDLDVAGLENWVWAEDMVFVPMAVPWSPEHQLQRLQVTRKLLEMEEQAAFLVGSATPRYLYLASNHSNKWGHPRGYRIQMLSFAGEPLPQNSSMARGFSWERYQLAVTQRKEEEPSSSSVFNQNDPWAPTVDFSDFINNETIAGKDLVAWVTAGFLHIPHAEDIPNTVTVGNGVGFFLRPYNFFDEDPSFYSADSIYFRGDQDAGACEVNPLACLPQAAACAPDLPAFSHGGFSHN
Procedure: as §1
Data are expressed as mean ± SEM. Subsequent statistical analysis was performed with unpaired two-sided Student’s t tests. *p < 0.05, **p < 0.01, ***p < 0.001and ****p < 0.0001. Source data are provided as a Source Data file.
This assay determines the substrate propensity of a compound relative to background (dimethyl sulfoxide only). Compound oxidation by rhSSAO was measured by fluorometric assay. Briefly, rhSSAO was incubated for 2 h at 37 °C in HEPES buffer before the addition of an equal volume of Amplex Red ([…]), horseradish peroxidase (4 U/ml), and test compound in the same buffer. The kinetics of the formation of resorufin was measured immediately using Optima reader (BMG Labtech GmbH, Ortenburg, Germany), at 37 °C.

[1] = Franz Cell skin permeability assay; format: in vitro ADME, human; conditions: average of 3 samples

Row | IC50 (Human recombinant LOXL2) | IC50 (Bovine (aorta) LOX) | Oxidation by SSAO (hydrogen peroxide generated relative to DMSO) (Human Recombinant SSAO) | SMILES | other results
1 | 8.7 µM | > 30 µM | 1.1 | NC/C(=C\F)COc1ccccc1 [compound 2] | –
2 | 1.1 µM | 8.4 µM and 8 µM | – | NC/C=C(\F)COc1ccccc1 [compound 4] | –
3 | 0.9 µM | 10.8 µM | 2.6 | NC/C=C(\F)CN1CCc2ccccc21 [compound 5] | –
4 | 3.4 µM | 13.6 µM | 5.5 | NC/C=C(\F)CNc1ccccc1 [compound 6] | –
5 | 1.1 µM | 8.5 µM | 68 | NC/C=C(\F)CSc1ccccc1 [compound 7] | –

The remaining lines, values behind:

Row | SMILES | IC50 (Human recombinant LOXL2) | IC50 (Bovine (aorta) LOX) | Oxidation by SSAO (hydrogen peroxide generated relative to DMSO) (Human Recombinant SSAO) | other results
6 | NC/C(=C/F)CCc1ccc(F)cc1 [Mofegiline, mofegiline, reference compound] | > 10 µM | 56 µM | 1.0 | inhibition of chicken lysyl oxidase activity (chicken lysyl oxidase): modest inhibitor
7 | NC/C=C(\F)C(F)(F)S(=O)(=O)c1ccccc1 [Samples 6302] | – | – | – | Avg. 6302 concentration ([1]; 0hr): 0 µM; Avg.6302 concentration ([1]; 0hr): 0.000 ng/mL; Avg. 6302 concentration ([1]; 2hr): 0.017 µM; Avg.6302 concentration ([1]; 2hr): 4.559 ng/mL; Avg. 6302 concentration ([1]; 4hr): 0.042 µM; Avg.6302 concentration ([1]; 4hr): 11.109 ng/mL; Avg. 6302 concentration ([1]; 6hr): 0.166 µM; Avg.6302 concentration ([1]; 6hr): 44.135 ng/mL; Avg. 6302 concentration ([1]; 20hr): 1.742 µM; Avg.6302 concentration ([1]; 20hr): 462.127 ng/mL
8 | NCC(=CF)COc1ccccc1 [compound 1] | 9.5 µM | > 30 µM | 1.1 | –
9 | NC/C=C(/F)COc1ccccc1 [compound 3] | 2.9 µM | 13.5 µM | 12.0 | –
